Experimental data published in article PMC9503459, “Antifungal Activity, Structural Stability, and Immunomodulatory Effects on Human Immune Cells of Defensin from the Lentil Lens culinaris” (Membranes, 2022).
Where “and” joins values, the source holds several entries; their conditions need not be identical. Identical values can stand only once. No end group written: not given here.

Tests used:
[1] = system: proteolytic enzymes of Candida albicans; test: Sensitivity to proteolytic enzymes of Candida albicans (cell lysate, SDS-PAGE); assay type: in vitro ADME; settings: C. albicans lysate 10^9 cells/mL, up to 72 h, SDS-PAGE
Protocol: For study of Lc-def sensitivity to the clinical isolate of C. albicans, lysates of yeast cells in different concentration and pH were used basically as previously described for rhesus macaque θ-defensin 1 [22]. Cells were inoculated onto modified YPD medium and grown at 37 ℃ for 48 h before reaching the stationary phase of growth. Cells were harvested by centrifugation, washed two times in sterile phosphate buffered saline (PBS), pH 7.2, or sterile 40 mM sodium acetate, pH 4.0, and resuspended in the corresponding buffer to final concentrations of 1 × 10^9 cells/mL or 1 × 10^3 cells/mL. Two freeze-thaw cycles in liquid nitrogen were used for cell disruption, and supernatants were collected following centrifugation. Supernatants (12.5 μL) were mixed with water solutions (37.5 μL) of Lc-def, α-casein, Psd1, or LL-37 in concentration of 0.67 mg/mL and incubated at 37 ℃ for 72 or 24 h in the case of high or low cell concentration, respectively. To study the possible influence of Lc-def and Psd1 on the degradation process, supernatants (12.5 μL) were mixed with both α-casein or LL-37 in concentration of 1 mg/mL (25 μL) and Lc-def or Psd1 in concentration of 2 mg/mL (12.5 μL). As negative controls, α-casein and peptides were mixed with buffers as well as supernatants were mixed with water without the proteins. The samples were mixed with sample buffer without β-mercaptoethanol (BME), heated at 100 ℃ for 2 min, and analyzed by sodium dodecyl sulfate polyacrylamide gel electrophoresis (SDS-PAGE). Some independent experiments were performed in each case.

[2] = system: pro-inflammatory macrophages (Mφ1) from THP-1 cells; test: Cytokine response by multiplex xMAP, pro-inflammatory macrophages; assay type: cell-based, human; settings: Mφ1 macrophages (THP-1), 2 µM, 24 h
Protocol: Colorectal adenocarcinoma Caco-2 cell line (ATCC HTB-37) was cultured in complete DMEM/F12 (1:1) medium containing 10% fetal bovine serum (FBS, Gibco) and 1X antibiotic-antimycotic solution (1XAAS, Invitrogen, Waltham, MA, USA). The acute monocytic leukemia THP-1 line (ATCC TIB-202) was cultured in complete RPMI-1640 medium, containing 10% FBS, 1XAAS, and […]. THP-1 cells were differentiated into pro-inflammatory macrophages (Mφ1) with phorbol 12-myristate 13-acetate (Sigma-Aldrich) for 24 h and subsequently polarized with lipopolysaccharide from E. coli (Sigma-Aldrich) and rhIFN-γ (Sigma-Aldrich) for another 48 h according to previously reported protocol. All cells were cultured in a humidified CO2 incubator (5% CO2, 37 °C). Primary peripheral blood mononuclear cells (PBMCs) collected from a healthy donor were purchased from American Type Culture Collection (ATCC PCS-800-011). CD4^+ T-helper and CD8^+ T cytotoxic cells were isolated from PBMCs by magnetic separation with mouse anti-human CD4-PE (clone 13B8.2, Beckman Coulter Diagnostics, Pasadena, CA, USA) and CD8-PE (clone REA734, Miltenyi Biotec, Bergisch Gladbach, Germany), Anti-PE MicroBeads (Miltenyi Biotec), and LS Separation Columns (Miltenyi Biotec). Isolated CD4^+ and CD8^+ cells were expanded separately with Dynabeads™ Human T-Expander CD3/CD28 (Gibco, Waltham, MA, USA) in RPMI-1640 supplemented with 10% FBS, 1XAAS and 100 U/mL rh-IL-2 (Gibco). Regulatory CD4^+ FoxP3^+ T cells (Tregs) were isolated from PBMCs by magnetic separation with CD4^+CD25^+ Regulatory T Cell Isolation Kit, human (Miltenyi Biotec). Primary CD14^+ blood monocytes were isolated from PBMCs by adherence according to standard technique. Monocyte-derived mature dendritic cells (moDCs) were obtained from CD14^+ blood monocytes according to the previously reported protocol. Briefly, blood monocytes were incubated in complete RPMI-1640 medium, containing 10% FBS, 1XAAS, 800 U/mL rhGM-CSF (Sci-Store, Russia, Moscow) and 500 U/mL rhIL-4 (Sci-Store) for 3 days. Fresh complete RPMI-1640 medium with rhGM-CSF and rhIL-4 was added to the culture on day 3. On day 5, fresh complete RPMI-1640 containing 100 U/mL rhTNF-α (Sigma) as well as 800 U/mL rhGM-CSF and 500 U/mL rhIL-4 was added and the culture was incubated for another 4 days until full maturation.
Caco-2 cells were seeded into the wells of a 48-well plate, coated with 0.1% bovine collagen (Sigma-Aldrich) for 24 h, 3 weeks before the experiment with complete DMEM/F12 (1:1) medium renewal every 2–3 days. Monocytes, moDCs, CD4^+ T-helper and CD8^+ T cytotoxic cells, Mφ1, and Regulatory CD4^+ FoxP3^+ T cells were seeded into the wells of 48-well plates in the complete RPMI-1640 medium supplemented with 10% Human AB serum (HABS, Capricorn Scientific, Ebsdorfergrund, Germany) and 1XAAS 24 h prior to the experiment; medium in Caco-2-containing wells was also replaced with the same medium. After 24 h, half of the medium in each well was replaced by fresh complete RPMI-1640 medium with 10% HABS, supplemented with 4 µM of Lc-def for the sample wells or fresh medium alone for the control wells. Cell cultures were kept in CO2-incubator (5% CO2, 37 °C) for another 24 h. Culture supernatants were collected 24 h later and stored at −70 °C degrees less than one month prior to the analytes assessment. […]

In the case of “Lc-def: defensin from lentil Lens culinaris seeds (UniProt:B3F051), recombinant, overexpressed in Escherichia coli (KTCENLSDSFKGPCIPDGNCNKHCKEKEHLLSGRCRDDFRCWCTRNC; disulfide (positions not given here); ends not checked; also: disulfide bonds present, pairing not given here; UniProt B3F051 28-74, looked up)”, the “stability to proteolysis by yeast” value ([1]; 40 mM sodium acetate pH 4.0, 37 °C) is reported as “stable”, the “stability to proteolysis by yeast” value ([1]; PBS pH 7.2, 37 °C, densitometry, immunoblotting) is reported as “stable” and the EGF [2] is reported as 2.32 pg/mL. For the same substance, the Eotaxin [2] was <3.23↓ pg/ml, the FGF-2 [2] was 16.21 pg/mL and the FLT-3L [2] was 2.27 pg/mL. The Fractalkine [2] was <23.19↓ pg/ml, the G-CSF [2] was 1150 pg/mL and the GM-CSF [2] was 74.32 pg/mL. For the same substance, the GROa [2] was 545.96 pg/mL, the IFNa2 [2] was 7.77 pg/mL and the IFNg [2] was <1.99↓ pg/ml. It also gave an IL-1RA [2] of 101.1 pg/mL, an IL-1a [2] of 38.93 pg/mL and an IL-1b [2] of 471.74 pg/mL. For the same substance, the IL-2 [2] was <0.31↓ pg/ml, the IL-3 [2] was <0.48↓ pg/ml and the IL-4 [2] was 0.92 pg/mL. The IL-5 [2] was <0.24↓ pg/ml, the IL-6 [2] was 1022 pg/mL and the IL-7 [2] was <0.33↓ pg/ml. For the same substance, the IL-8 [2] was >17785↑ pg/ml, the IL-9 [2] was <1.05↓ pg/ml and the IL-10 [2] was 41.17 pg/mL. The “IL-12 (p40)” value [2] was <3.02↓ pg/ml, the “IL-12 (p70)” value [2] was 4.54 pg/mL and the IL-13 [2] was 15.11 pg/mL. The IL-15 [2] was <1.45↓ pg/ml, the IL-17A [2] was <1.55↓ pg/ml and the IL-17E/IL-25 [2] was <20.59↓ pg/ml. For the same substance, the IL-17F [2] was <16.96↓ pg/ml, the IL-18 [2] was 6.51 pg/mL and the IL-22 [2] was 28.78 pg/mL. The IL-27 [2] was 40.89 pg/mL, the IP-10 [2] was <1.56↓ pg/ml and the M-GSF [2] was <23.75↓ pg/ml. The MCP-1 [2] was 259 pg/mL and 259.04 pg/mL, the MCP-3 [2] was 8.66 pg/mL and the MDC [2] was <0.35↓ pg/ml. For the same substance, the MIG [2] was 124 pg/mL and 124.97 pg/mL, the MIP-1a [2] was 2680 pg/mL and the MIP-1b [2] was 413 pg/mL and 413.11 pg/mL. The PDGF-AA [2] was 4181 pg/mL, the PDGF-AB/BB [2] was <9.75↓ pg/ml and the RANTES [2] was 23.61 pg/mL. The TGF-a [2] was 0.89 pg/mL, the TNFa [2] was 1942 pg/mL and the TNFb [2] was 1.95 pg/mL. For the same substance, the VEGFa [2] was 48.67 pg/mL and the sCD40L [2] was 14.8 pg/mL.
